The source of these data is patent US20240090503A1, “FUNGICIDAL OXADIAZOLES AND THEIR MIXTURES” (FMC CORPORATION, priority 2020, published 2024).

Assay type in all cases: in vivo
For test [1], the system named is Puccinia recondita f. sp. tritici (the causal agent of wheat leaf rust). Description: Test C: preventive spray on wheat seedlings, wheat leaf rust, visual disease rating. To be noted: Puccinia recondita, 168 h, wheat seedlings; for pest or weed control at 10 µg/mL: test suspension 10 ppm, read-out: Test C disease control rating. The method in brief: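 Wheat seedlings sprayed to run-off with compound in acetone/water (50/50) with 250 ppm PEG400, then inoculated with spores the following day. After 24 h saturated humidity at 20° C. and 6 days in growth chamber at 20° C., disease rated visually as % control relative to untreated controls.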

Test [2] deals with Phakopsora pachyrhizi (the causal agent of Asian soybean rust). Description: Test A: preventive spray on soybean seedlings, Asian soybean rust, visual disease rating. To be noted: Phakopsora pachyrhizi, 216 h, soybean seedlings, 100 = 100% disease control, 0 = no control; for pest or weed control at 10 µg/mL: test suspension 10 ppm, read-out: Test A disease control rating. The method in brief:
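Compound in acetone/water (50/50) with 250 ppm PEG400 sprayed to run-off on soybean seedlings; inoculated next day with Phakopsora pachyrhizi spores. Held 24 h at 22° C in saturated atmosphere, then 8 days in a 22° C growth chamber before visual rating as % disease control relative to controls.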

Test [3] shares this test system. Description: Test E: compounds alone and mixtures sprayed on soybean seedlings, Asian soybean rust, observed and Colby-expected disease control. Set-up: key to Test E Obsd: 100 = 100% disease control, 0 = no disease control. To be noted: for Test E Obsd: inpyrfluxam alone. From the text:
The general protocol for preparing test compositions for TEST E was as follows: Compound 316, Compound 376, Compound 225, Compound 229, Compound 257, Compound 394, Compound 506, Compound 507, Compound 508, Compound 509, Compound 511, Compound 512, methyl N-[[5-[1-[2,6-difluoro-4-(1-methylethyl)phenyl]-1H-pyrazol-3-yl]-2-methylphenyl]methyl]carbamate (b54.11a), methyl N-[[5-[l-(4-cyclopropyl-2,6-difluorophenyl)-1H-pyrazol-3-yl]-2-methylphenyl]methyl]carbamate (b54.11d), ethyl 1-[[4-[[(1Z)-2-ethoxy-3,3,3-trifluoro-1-propen-1-yl]oxy]phenyl]methyl]-1H-pyrazole-4-carboxylate (b54.12a), ethyl 1-[[4-[[2-(trifluoromethyl)-1,3-dioxolan-2-yl]methoxy]phenyl]methyl]-1H-pyrazole-4-carboxylate (b54.13a), azoxystrobin, benzovindiflupyr, bixafen, chlorothalonil, cyproconazole, epoxiconazole, fenpropidin, fenpropimorph, fluindapyr, flutriafol, fluxapyroxad, inpyrfluxam, metominostrobin, picoxystrobin, prothioconazole, pydiflumetofen, pyraclostrobin, tebuconazole and trifloxystrobin were obtained as unformulated, technical-grade materials. Copper hydroxide and mancozeb was obtained as a formulated product marketed under the trademarks KOCIDE 3000 and MANZATE, respectively. Unformulated materials were first dissolved in acetone and then suspended at the desired concentration (in ppm) in acetone and purified water (50/50 mixture by volume) containing 250 ppm of the surfactant Trem® 014 (polyhydric alcohol esters). Formulated materials were dispersed in sufficient water to give the desired concentration, and neither organic solvent nor surfactant was added to the suspension. The resulting test mixtures were then used in TEST E. The tests were run on four individual plants and the results reported as the mean average of the four plants.
The presence of a synergistic effect between two active ingredients can be established with the aid of the Colby equation (see Colby, S. R. “Calculating Synergistic and Antagonistic Responses of Herbicide Combinations”, Weeds, (1967), 15, 20-22):
Using the method of Colby, the presence of a synergistic interaction between two active ingredients is established by first calculating the predicted activity, p, of the mixture based on activities of the two components applied alone. If p is lower than the experimentally established effect, synergism has occurred. In the equation above, A is the fungicidal activity in percentage control of one component applied alone at rate x. The B term is the fungicidal activity in percentage control of the second component applied at rate y. The equation estimates p, the expected fungicidal activity of the mixture of A at rate x with B at rate y if their effects are strictly additive and no interaction has occurred.
The test mixture was sprayed to the point of run-off on soybean seedlings. The following day the seedlings were inoculated with a spore suspension of Phakopsora pachyrhizi (the causal agent of Asian soybean rust) and incubated in a saturated atmosphere at 22° C. for 24 h and then moved to a growth chamber at 22° C. for 8 days, after which time visual disease ratings were made.
Results for Test E are given below in Tables A-1 through K-2. Each table corresponds to a set of evaluations performed together at the same time. In each table, a rating of 100 indicates 100% disease control and a rating of 0 indicates no disease control (relative to the controls). Columns labeled “Obsd” indicate the average of results observed from test run on four individual plants. Columns labeled “Exp” indicate the expected value for each treatment mixture using the Colby equation, as described above.

For test [4], the system named is Zymoseptoria tritici (the causal agent of wheat leaf blotch). Description: Test B: preventive spray on wheat seedlings, wheat leaf blotch, visual disease rating. The settings on record: Zymoseptoria tritici, 456 h; test suspension 250 ppm; wheat seedlings. An outline of the steps:
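This is a preventive test: spray application preceded Zymoseptoria tritici spore inoculation by one day. Test suspensions were in acetone/water with 250 ppm PEG400 surfactant, at the listed ppm rate. After 48 h saturated humidity at 24° C and 17 days at 20° C, visual ratings scored control from 0 to 100%.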

Setting [5] is: Phakopsora pachyrhizi, Compound 508 alone, read-out: Test E Obsd.
Where [6] appears, read: Phakopsora pachyrhizi, applied alone, read-out: Test E Obsd.

Like-named read-outs stand apart in the source and are kept apart here.

For `O=C(NCC(F)F)c1coc(Cc2ccc(-c3noc(C(F)(F)F)n3)cc2)n1` [Compound 225, N-(2,2-difluoroethyl)-2-[[4-[5-(trifluoromethyl)-1,2,4-oxadiazol-3-yl]phenyl]methyl]-4-oxazolecarboxamide], the pest or weed control at 10 µg/mL in test [1] and in test [2] was 100% in each case. In addition, in test [3] (Phakopsora pachyrhizi, applied alone, 0.589 ppm, read-out: Test E Obsd), the pest or weed control at 0.589 ppm stood at 68%. Besides, the pest or weed control at 250 µg/mL in test [4] worked out at 99%.

With `N#CCCNC(=O)c1coc(Cc2ccc(-c3noc(C(F)(F)F)n3)cc2)n1` [Compound 229, N-(2-cyanoethyl)-2-[[4-[5-(trifluoromethyl)-1,2,4-oxadiazol-3-yl]phenyl]methyl]-4-oxazolecarboxamide], the pest or weed control at 10 µg/mL in test [1] and in test [2] was 100% each time. Further, the pest or weed control at 0.964 ppm in test [3] (Phakopsora pachyrhizi, applied alone, 0.964 ppm, read-out: Test E Obsd) worked out at 59%. Besides, the pest or weed control at 1.915 ppm in test [3] (Phakopsora pachyrhizi, applied alone, 1.915 ppm, read-out: Test E Obsd) turned out to be 77%. In test [4], the pest or weed control at 250 µg/mL turned out to be 94%.

For `COCCNC(=O)c1coc(Cc2ccc(-c3noc(C(F)(F)F)n3)cc2)n1` [Compound 257, N-(2-methoxyethyl)-2-[[4-[5-(trifluoromethyl)-1,2,4-oxadiazol-3-yl]phenyl]methyl]-4-oxazolecarboxamide], the pest or weed control at 10 µg/mL in test [1] and in test [2] was 100% each time. In addition, in test [3] (Phakopsora pachyrhizi, applied alone, 0.914 ppm, read-out: Test E Obsd), the pest or weed control at 0.914 ppm was 27%. Also, the pest or weed control at 250 µg/mL in test [4] turned out to be 99%.

In the case of `CCNC(=O)c1cnn(COCc2ccc(-c3noc(C(F)(F)F)n3)cc2)c1` [Compound 508, N-ethyl-1-[[[4-[5-(trifluoromethyl)-1,2,4-oxadiazol-3-yl]phenyl]methoxy]methyl]-1H-pyrazole-4-carboxamide], the pest or weed control at 10 ppm in test [1] (10 ppm test suspension, 100 = 100% disease control, 0 = no control) turned out to be 100%; in test [2] (10 ppm test suspension), 100%. The pest or weed control at 0.855 ppm was 0% in test [3] (setting [5]) and 23% in test [3] (setting [6]). Further, the pest or weed control at 1.716 ppm came out at 52% in test [3] (setting [5]) and 60% in test [3] (setting [6]).

Turning to `CON(C(=O)c1cn(C)nc1C(F)F)C(C)Cc1c(Cl)cc(Cl)cc1Cl` (centres unmarked) [pydiflumetofen, reference compound], the “Test E Obsd (disease control rating)” value in test [3] (Table E-1, component (b) alone: epoxiconazole 46.795, pydiflumetofen 70.950 ppm) was determined as 0%; in test [3] (Table E-1, component (b) alone: epoxiconazole 89.631, pydiflumetofen 135.850 ppm), 73%; in test [3] (Table E-2, component (b) alone: epoxiconazole 46.795, pydiflumetofen 70.950 ppm) it was 0%; in test [3] (Table E-2, component (b) alone: epoxiconazole 89.631, pydiflumetofen 135.850 ppm) it was 73%; in test [3] (Table G-1, component (b) alone: pydiflumetofen 41.364, pyraclostrobin 45.860, metominostrobin 29.673 ppm), 49%; in test [3] (Table G-1, component (b) alone: pydiflumetofen 128.793, pyraclostrobin 137.503, metominostrobin 86.003 ppm) it was 36%. Further, the “Test E Obsd (disease control rating)” value in test [3] (Table G-2, component (b) alone: pydiflumetofen 41.364, pyraclostrobin 45.860, metominostrobin 29.673 ppm) is 49%; in test [3] (Table G-2, component (b) alone: pydiflumetofen 128.793, pyraclostrobin 137.503, metominostrobin 86.003 ppm), 36%.

For inpyrfluxam [reference compound], the “Test E Obsd” value was 56 in test [3] (0.448 ppm) and 79 in test [3] (1.059 ppm).
